PubChem BioAssay (NCI)
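All cell lines were grown in 96-well plates and treated with compound for 48 hours. GI50: concentration for 50% inhibition of growth. TGI: concentration producing complete growth inhibition.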

Each compound was assayed on MOLT-4 leukemia (assay: DTP human tumour cell line panel, 48 h).
For `CCOC(=O)NC(=O)c1cn(CCCOC(=O)NCCCCCCNC(=O)OCCCn2c(=O)c(C(=O)NC(=O)OCC)cn(C)c2=O)c(=O)n(C)c1=O`, the TGI was greater than 100 µM. `O=C1C2=C(CC3C(C2)C3(Br)Br)C(=O)C2=C1CC1C(C2)C1(Br)Br` (stereo unspecified) showed a TGI greater than 100 µM. For `CC(C)=CC(=O)N1CCN(C(=O)C=C(C)C)CC1`, the TGI was greater than 100 µM. With `CC(=O)c1ccc(NC(=O)/C(Cc2ccccn2)=N/NC(=O)C[N+](C)(C)C)cc1` the TGI was greater than 100 µM. Work on `CCc1cccc(C)c1NC(C)=O` yielded a TGI greater than 100 µM. In the case of `O=C(CC(=O)N1N=C(c2ccccc2)C(N=Nc2ccc(Cl)cc2)C1=O)Nc1ccccc1Cl` (stereo unspecified), the TGI is reported as greater than 100 µM.

The compounds below were run on OVCAR-8 ovarian (assay: DTP human tumour cell line panel, 48 h).
`CC(C)(C)OC(=O)N(CCCN(CCn1c2c(c3ccccc3c1=O)C(=O)c1ccccc1-2)C(=O)OC(C)(C)C)CCn1c2c(c3ccccc3c1=O)C(=O)c1ccccc1-2` was tested, and the GI50 was 34.9 µM and the TGI was greater than 50 µM. With `CCCCCCCCCCCCCCCCOP(=O)(O)Oc1ccc(/C=C\c2ccc(OP(=O)(O)OCCCCCCCCCCCCCCCC)cc2)cc1` the TGI was 56.1 µM. Work on `CCN(CC)C(=O)C/C(C)=N/NC(=O)c1ccncc1` yielded a TGI greater than 100 µM. `Cc1c2c(nn1-c1ccc(S(=O)(=O)/N=C3\SCC(=O)N3C(=O)c3ccccc3)cc1)-c1ccccc1CC2` was tested, and the GI50 was 68.8 µM and the TGI was greater than 100 µM. Work on `CN(C)C(=S)/N=c1\ss/c(=N\C(=S)N(C)C)n1-c1ccc2c(c1)OCO2` yielded a TGI greater than 100 µM. For `COC(=O)C(=O)C(C(=O)C(=O)Nc1ccc(C)cc1C)c1nc2ccccc2[nH]c1=O` (stereo unspecified), the TGI was greater than 100 µM. Compound `Cn1cc(-c2csc(-c3cccc(F)c3)n2)c2cccnc21` has a GI50 of 26.5 µM and a TGI of 64.3 µM. `Cc1ccc(N=NC(C(=O)c2ccccc2)C(=O)c2ccccc2)cc1` gave a TGI greater than 100 µM. `Cc1ccc(NC(=O)C2C(=O)N(c3ccc(C)c(C)c3)C(=O)/C2=N/O)cc1C` (stereo unspecified) showed a TGI greater than 100 µM. `Nc1c(-c2ccc(Br)cc2)[n+]([O-])c2ccccc2[n+]1[O-]` was tested, and the TGI was greater than 100 µM. In the case of `C#CC[C@]12CC(=O)CC[C@H]1CC(=O)C2`, the TGI is reported as greater than 100 µM. For `CNC=O.[O]=[Ge].[O]=[Ge].[O]=[Ge].[O]=[Ge][OH].[O]=[Ge][OH]`, the TGI was greater than 100 µM. In the case of `N#CCCN(c1ccc(/C=C2\N=C(c3ccc(Cl)cc3)OC2=O)cc1)S(=O)(=O)c1ccccc1`, the TGI is reported as greater than 100 µM. Work on `Cc1cc(NS(=O)(=O)c2ccc(NC(=O)c3cccc4c(=O)c5ccccc5[nH]c34)cc2)no1` yielded a TGI of 67.4 µM. `O=C(/C=C/c1ccccc1Cl)c1ccccc1Cl` gave a TGI of 33.6 µM. With `COC(=O)C1=C(c2ccc3c(c2)OCO3)O[C@H](c2ccc3c(c2)OCO3)[C@H]1COC(C)=O` the TGI was greater than 100 µM. Work on `CC(C)=[CH][Sb]([Br])([CH]=C(C)C)([CH]=C(C)C)[CH]=C(C)C` yielded a GI50 of 23 µM and a TGI greater than 100 µM. Compound `CCOC(=O)[C@H]1Nc2ccc(C)cc2C2c3ccccc3CC21` (stereo partly specified) has a TGI greater than 100 µM. `COc1cc([N+](=O)[O-])ccc1NC(=O)C(F)(F)F` showed a TGI greater than 100 µM. Compound `N#CCCN(CCC#N)c1ccc(/C=C2\N=C(CN3C(=O)c4ccccc4C3=O)OC2=O)cc1` has a TGI greater than 100 µM. `CSc1nc(NC2OC(COC(C)=O)C(OC(C)=O)C(OC(C)=O)C2OC(C)=O)c2c(OC(C)=O)c(C)c(=O)oc2n1` (stereo unspecified) was tested, and the TGI was greater than 100 µM. For `O=C(NC1CCCCCC1)C1C(=O)N(C2CCCCCC2)C(=O)/C1=N\O` (stereo unspecified), the TGI was greater than 100 µM. Work on `O=C(O)C1C(C(=O)O)C(C(=O)O)C1C(=O)O` (stereo unspecified) yielded a TGI greater than 100 µM. `COc1ccc(C(=O)O)c(Cc2cccc3ccccc23)c1` gave a TGI greater than 100 µM. `CC#CC(=O)Nc1ccccc1CC(c1c[nH]c2ccccc12)c1c[nH]c2ccccc12` gave a TGI of 76.7 µM. For `NCCCNCCSSCCCCS(=O)O`, the TGI was greater than 100 µM. Work on `COC(=O)C(=O)C(C(=O)C=C(C)C)C(=O)C(=O)Nc1ccc(Cl)cc1C` (stereo unspecified) yielded a TGI greater than 100 µM. `C[C@]12CC[C@@H]3c4ccc(Oc5nc(N6CC6)nc(N6CC6)n5)cc4CC[C@H]3[C@@H]1CCC2=O` gave a GI50 of 2.64 µM and a TGI of 23.8 µM. With `COc1cc(C(=O)O[C@H](C(N)=O)[C@]2(C)CO2)c2ccccc2c1` the GI50 was 5.87 µM and the TGI was 25.3 µM. In the case of `Cc1cccc(C(C)(C)C)c1NC(=O)CCc1n[nH]c(=S)o1`, the TGI is reported as greater than 100 µM. Compound `Cc1ccc(C(=O)/C=C/c2ccccc2O)c(C)c1` has a TGI greater than 100 µM. Work on `O=S(O)CCCCSSCCCCSSCCCCS(=O)O` yielded a TGI greater than 100 µM. In the case of `N#Cc1cnsc1`, the TGI is reported as greater than 100 µM. For `CC(=O)SCCC1c2[nH]c3ccccc3c2CCN1O` (stereo unspecified), the TGI was greater than 100 µM. Compound `CCOC(=O)NC(=O)c1cn(CCCOC(=O)NCCCCCCNC(=O)OCCCn2c(=O)c(C(=O)NC(=O)OCC)cn(C)c2=O)c(=O)n(C)c1=O` has a TGI greater than 100 µM. `O=C1C2=C(CC3C(C2)C3(Br)Br)C(=O)C2=C1CC1C(C2)C1(Br)Br` (stereo unspecified) gave a TGI greater than 100 µM. Work on `CC(C)=CC(=O)N1CCN(C(=O)C=C(C)C)CC1` yielded a TGI greater than 100 µM. `CC(=O)c1ccc(NC(=O)/C(Cc2ccccn2)=N/NC(=O)C[N+](C)(C)C)cc1` was tested, and the TGI was greater than 100 µM. With `CCc1cccc(C)c1NC(C)=O` the TGI was greater than 100 µM.
